Results reported in article PMC7486443, “Generation of Phenothiazine with Potent Anti-TLK1 Activity for Prostate Cancer Therapy” (iScience, 2020).

How the values were obtained:
Experiment in all cases: biochemical
Set-up in all cases: DiscoverX KINOMEscan scanMAX competition binding panel, single concentration, percent of control; remaining binding: dose or concentration left out as unconfirmed
Conditions in all cases: KINOMEscan binding, percent of control; read-out: Table S4_SCANMAX REPORT - related to Fig. 1 / Percent Control
PCTK1 = target: T1, PCTK1 (Homo sapiens, UniProt Q00536)
T1 construct: gene CDK16

HCK = HCK (Homo sapiens, UniProt P08631)
PLK4 = PLK4 (Homo sapiens, UniProt O00444)
PAK6 = PAK6 (Homo sapiens, UniProt Q9NQU5)
MAP4K2 = MAP4K2 (Homo sapiens, UniProt Q12851)
FYN = FYN (Homo sapiens, UniProt P06241)
MAP3K1 = MAP3K1 (Homo sapiens, UniProt Q13233)
[1] = target: T2, RPS6KA4(Kin.Dom.1-N-terminal) (Homo sapiens, UniProt O75676)
T2 construct: Kin.Dom.1-N-terminal

[2] = target: T3, ABL1(M351T)-phosphorylated (Homo sapiens, UniProt P00519, M351T)
T3 construct: phosphorylated

CSNK2A2 = CSNK2A2 (Homo sapiens, UniProt P19784)
[3] = target: T4, RSK3(Kin.Dom.1-N-terminal) (Homo sapiens, UniProt Q15349)
T4 construct: gene RPS6KA2; Kin.Dom.1-N-terminal

ALK(C1156Y) = ALK(C1156Y) (Homo sapiens, UniProt Q9UM73, C1156Y)
[4] = target: T5, RPS6KA5(Kin.Dom.1-N-terminal) (Homo sapiens, UniProt O75582)
T5 construct: Kin.Dom.1-N-terminal

NEK1 = NEK1 (Homo sapiens, UniProt Q96PY6)
GSK3B = GSK3B (Homo sapiens, UniProt P49841)
CSNK1G2 = CSNK1G2 (Homo sapiens, UniProt P78368)
ERK2 = target: T6, ERK2 (Homo sapiens, UniProt P28482)
T6 construct: gene MAPK1

KIT = KIT (Homo sapiens, UniProt P10721)

MAP3K1, sequence (Q13233 whole entry): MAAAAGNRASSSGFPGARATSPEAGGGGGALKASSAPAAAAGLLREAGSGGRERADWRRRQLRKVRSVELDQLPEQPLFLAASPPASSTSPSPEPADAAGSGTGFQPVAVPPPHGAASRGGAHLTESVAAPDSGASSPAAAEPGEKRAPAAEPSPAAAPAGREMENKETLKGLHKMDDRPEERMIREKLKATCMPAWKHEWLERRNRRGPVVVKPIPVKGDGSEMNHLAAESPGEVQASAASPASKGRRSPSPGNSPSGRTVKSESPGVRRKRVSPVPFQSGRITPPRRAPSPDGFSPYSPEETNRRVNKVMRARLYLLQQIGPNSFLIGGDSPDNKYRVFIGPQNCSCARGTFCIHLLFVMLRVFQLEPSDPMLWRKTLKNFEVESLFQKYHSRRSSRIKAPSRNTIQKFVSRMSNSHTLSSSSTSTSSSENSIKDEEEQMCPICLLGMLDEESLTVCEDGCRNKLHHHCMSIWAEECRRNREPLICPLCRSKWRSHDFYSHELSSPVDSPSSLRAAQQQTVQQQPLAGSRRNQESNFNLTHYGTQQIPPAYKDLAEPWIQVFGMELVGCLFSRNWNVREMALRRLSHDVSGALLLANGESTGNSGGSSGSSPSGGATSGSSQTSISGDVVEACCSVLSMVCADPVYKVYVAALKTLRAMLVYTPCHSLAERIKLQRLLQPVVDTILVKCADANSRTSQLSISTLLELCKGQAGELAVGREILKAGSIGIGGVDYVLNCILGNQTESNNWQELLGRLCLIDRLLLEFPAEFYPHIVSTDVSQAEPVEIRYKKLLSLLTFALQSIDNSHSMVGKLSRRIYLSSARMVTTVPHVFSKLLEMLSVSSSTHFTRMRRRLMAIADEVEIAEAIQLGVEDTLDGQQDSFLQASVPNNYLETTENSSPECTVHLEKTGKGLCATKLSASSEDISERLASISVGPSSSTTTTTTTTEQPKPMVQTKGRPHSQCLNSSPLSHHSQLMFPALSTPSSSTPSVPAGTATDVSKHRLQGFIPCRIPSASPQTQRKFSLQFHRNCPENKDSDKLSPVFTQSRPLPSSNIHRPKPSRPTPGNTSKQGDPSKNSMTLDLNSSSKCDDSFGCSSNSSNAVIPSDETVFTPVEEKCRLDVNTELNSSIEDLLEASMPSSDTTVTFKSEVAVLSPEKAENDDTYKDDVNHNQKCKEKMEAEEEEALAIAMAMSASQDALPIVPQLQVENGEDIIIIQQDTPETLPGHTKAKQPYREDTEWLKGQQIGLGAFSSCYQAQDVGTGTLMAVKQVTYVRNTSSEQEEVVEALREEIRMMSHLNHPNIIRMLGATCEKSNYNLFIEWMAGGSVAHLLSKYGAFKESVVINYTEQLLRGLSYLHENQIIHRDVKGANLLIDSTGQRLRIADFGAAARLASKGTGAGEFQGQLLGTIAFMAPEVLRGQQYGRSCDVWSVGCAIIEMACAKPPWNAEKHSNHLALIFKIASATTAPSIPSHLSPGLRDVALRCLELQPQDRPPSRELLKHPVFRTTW
T6 sequence (P28482 whole entry): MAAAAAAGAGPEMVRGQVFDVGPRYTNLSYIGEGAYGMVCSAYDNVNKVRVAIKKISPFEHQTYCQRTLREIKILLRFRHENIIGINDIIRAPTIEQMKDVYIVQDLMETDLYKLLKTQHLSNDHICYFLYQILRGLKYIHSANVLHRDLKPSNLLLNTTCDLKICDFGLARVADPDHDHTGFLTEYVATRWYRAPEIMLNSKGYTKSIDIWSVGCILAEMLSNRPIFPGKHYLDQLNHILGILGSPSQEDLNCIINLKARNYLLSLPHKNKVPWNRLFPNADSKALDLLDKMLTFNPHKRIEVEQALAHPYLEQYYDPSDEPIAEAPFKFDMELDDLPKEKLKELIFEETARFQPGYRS
PLK4, sequence (O00444 whole entry): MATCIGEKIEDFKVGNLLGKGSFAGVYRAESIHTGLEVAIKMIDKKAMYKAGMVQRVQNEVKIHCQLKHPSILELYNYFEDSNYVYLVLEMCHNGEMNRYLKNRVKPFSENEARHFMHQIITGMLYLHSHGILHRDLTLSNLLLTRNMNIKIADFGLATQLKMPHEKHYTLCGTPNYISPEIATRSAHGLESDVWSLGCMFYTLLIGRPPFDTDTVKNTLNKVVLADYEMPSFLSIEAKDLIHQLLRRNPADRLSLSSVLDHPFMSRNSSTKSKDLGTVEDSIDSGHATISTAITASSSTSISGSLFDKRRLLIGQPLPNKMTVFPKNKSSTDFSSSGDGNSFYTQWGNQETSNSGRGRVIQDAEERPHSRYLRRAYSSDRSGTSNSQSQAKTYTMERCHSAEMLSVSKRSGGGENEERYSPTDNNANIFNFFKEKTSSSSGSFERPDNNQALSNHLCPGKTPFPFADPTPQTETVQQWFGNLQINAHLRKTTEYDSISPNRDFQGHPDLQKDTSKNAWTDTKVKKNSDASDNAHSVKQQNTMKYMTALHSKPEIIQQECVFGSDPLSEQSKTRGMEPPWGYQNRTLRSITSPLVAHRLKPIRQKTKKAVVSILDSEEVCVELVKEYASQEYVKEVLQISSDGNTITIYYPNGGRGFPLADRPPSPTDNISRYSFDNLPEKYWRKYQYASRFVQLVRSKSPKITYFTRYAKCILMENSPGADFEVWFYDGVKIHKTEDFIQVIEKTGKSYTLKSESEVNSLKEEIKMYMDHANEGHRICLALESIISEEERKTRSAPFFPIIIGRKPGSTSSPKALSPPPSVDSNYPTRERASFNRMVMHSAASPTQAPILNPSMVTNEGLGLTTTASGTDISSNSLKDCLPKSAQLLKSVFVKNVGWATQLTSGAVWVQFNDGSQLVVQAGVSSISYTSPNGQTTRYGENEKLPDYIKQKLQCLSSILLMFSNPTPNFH
ALK(C1156Y), sequence (Q9UM73 whole entry C1156Y): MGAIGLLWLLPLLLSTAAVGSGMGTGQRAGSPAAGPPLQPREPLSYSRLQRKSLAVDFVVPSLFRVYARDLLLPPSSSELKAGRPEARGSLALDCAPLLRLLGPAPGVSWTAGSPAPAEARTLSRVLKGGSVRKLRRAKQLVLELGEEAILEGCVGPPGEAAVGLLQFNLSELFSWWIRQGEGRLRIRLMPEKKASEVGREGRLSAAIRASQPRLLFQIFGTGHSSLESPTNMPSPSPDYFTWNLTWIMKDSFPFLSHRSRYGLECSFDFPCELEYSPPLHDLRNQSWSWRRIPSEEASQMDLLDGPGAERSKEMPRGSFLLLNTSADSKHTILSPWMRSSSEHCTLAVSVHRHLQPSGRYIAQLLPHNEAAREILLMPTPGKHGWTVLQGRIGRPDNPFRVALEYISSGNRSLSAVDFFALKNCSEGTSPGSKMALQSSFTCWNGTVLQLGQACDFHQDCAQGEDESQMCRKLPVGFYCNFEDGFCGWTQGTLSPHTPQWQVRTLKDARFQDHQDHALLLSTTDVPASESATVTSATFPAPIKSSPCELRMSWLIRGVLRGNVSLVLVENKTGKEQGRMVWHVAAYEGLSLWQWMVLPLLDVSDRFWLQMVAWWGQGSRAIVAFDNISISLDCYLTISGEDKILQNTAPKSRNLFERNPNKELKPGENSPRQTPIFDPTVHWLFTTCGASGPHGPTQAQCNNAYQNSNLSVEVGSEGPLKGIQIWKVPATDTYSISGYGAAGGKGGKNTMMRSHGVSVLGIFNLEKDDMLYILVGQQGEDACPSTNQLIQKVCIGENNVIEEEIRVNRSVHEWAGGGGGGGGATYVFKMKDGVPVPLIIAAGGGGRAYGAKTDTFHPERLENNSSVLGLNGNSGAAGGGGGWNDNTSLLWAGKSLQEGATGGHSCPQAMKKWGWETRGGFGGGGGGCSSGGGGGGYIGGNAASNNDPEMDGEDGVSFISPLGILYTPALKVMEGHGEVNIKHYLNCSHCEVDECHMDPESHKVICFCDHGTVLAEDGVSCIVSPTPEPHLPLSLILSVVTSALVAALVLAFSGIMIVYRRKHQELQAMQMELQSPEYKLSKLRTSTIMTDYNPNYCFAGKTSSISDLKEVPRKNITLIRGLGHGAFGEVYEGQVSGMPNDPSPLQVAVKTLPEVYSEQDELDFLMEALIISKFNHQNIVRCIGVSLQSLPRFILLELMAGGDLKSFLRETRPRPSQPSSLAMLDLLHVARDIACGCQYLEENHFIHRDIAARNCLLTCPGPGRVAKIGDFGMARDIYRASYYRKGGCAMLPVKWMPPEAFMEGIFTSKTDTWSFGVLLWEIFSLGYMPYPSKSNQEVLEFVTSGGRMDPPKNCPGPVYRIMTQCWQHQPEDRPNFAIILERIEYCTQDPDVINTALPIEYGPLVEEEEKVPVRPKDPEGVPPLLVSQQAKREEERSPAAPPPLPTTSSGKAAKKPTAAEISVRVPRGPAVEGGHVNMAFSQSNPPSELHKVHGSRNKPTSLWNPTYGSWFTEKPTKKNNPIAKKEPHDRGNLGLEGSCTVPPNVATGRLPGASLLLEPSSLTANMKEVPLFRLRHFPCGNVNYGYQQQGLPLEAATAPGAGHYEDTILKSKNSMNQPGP
CSNK1G2, sequence (P78368 whole entry): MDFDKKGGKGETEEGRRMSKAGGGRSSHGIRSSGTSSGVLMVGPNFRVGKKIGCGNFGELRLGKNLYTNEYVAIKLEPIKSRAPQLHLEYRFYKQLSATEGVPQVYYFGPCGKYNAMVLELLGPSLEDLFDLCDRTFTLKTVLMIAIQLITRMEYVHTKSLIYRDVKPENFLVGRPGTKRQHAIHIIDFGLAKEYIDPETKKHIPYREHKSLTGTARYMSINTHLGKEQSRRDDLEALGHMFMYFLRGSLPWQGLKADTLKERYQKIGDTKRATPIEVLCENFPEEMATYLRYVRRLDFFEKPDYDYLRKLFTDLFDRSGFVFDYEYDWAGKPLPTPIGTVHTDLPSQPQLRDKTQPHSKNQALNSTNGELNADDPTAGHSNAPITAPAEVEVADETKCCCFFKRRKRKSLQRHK

`c1ccc2c(c1)Sc1ccccc1N2CCN1CCOCC1` [J54] was tested. Which remaining binding (PCTK1) did it give?
The remaining binding was 99%.

And the remaining binding (HCK)?
Its remaining binding is 100%.

What about the remaining binding (PLK4) of the same molecule?
The remaining binding was 85%.

What about the remaining binding (PAK6) of the same molecule?
Its remaining binding is 100%.

And the remaining binding (MAP4K2)?
Its remaining binding is 100%.

And the remaining binding (FYN)?
The remaining binding was 100%.

What about the remaining binding (MAP3K1) of the same molecule?
The remaining binding was 100%.

And the remaining binding [1]?
Its remaining binding is 75%.

And the remaining binding [2]?
Its remaining binding is 100%.

What about the remaining binding (CSNK2A2) of the same molecule?
The remaining binding was 77%.

And the remaining binding [3]?
The remaining binding was 100%.

What about the remaining binding (ALK(C1156Y)) of the same molecule?
Its remaining binding is 100%.

And the remaining binding [4]?
The remaining binding was 100%.

And the remaining binding (NEK1)?
The remaining binding was 95%.

And the remaining binding (GSK3B)?
Its remaining binding is 100%.

What about the remaining binding (CSNK1G2) of the same molecule?
Its remaining binding is 93%.

What about the remaining binding (ERK2) of the same molecule?
The remaining binding was 97%.

And the remaining binding (KIT)?
Its remaining binding is 100%.
